Patent US5677288A, “Use of aminoglycosides to protect against excitotoxic neuron damage” (Cypros Pharmaceutical Corporation, priority 1994, dated 1997)
Entries after “also recorded” stand apart in the source; their conditions may differ. Where two headings read alike, the source gives them in different places.

How the values were obtained:
[1] = system: N-type calcium channels (N-channels); assay type: binding, rats or mice; conditions: for IC50: omega-conotoxin binding, brain membrane fragments, read-out: N-channel IC50
L-type Ca2+ channel = assay: inhibition of tritiated dihydropyridine PN-200 binding to the L-type Ca2+ channel; conditions: in words
Procedure: These tests were carried out as follows. Brain tissue was used from rats or mice that had been anesthetized with halothane and decapitated. Membrane fractions were prepared as follows. Tissue samples were mixed with 25 tissue-volumes of 50 mM Tris-HCl buffer, pH 7.5. Tissue-buffer mixtures were homogenized using a Brinkman Polytron homogenizer, and resulting tissue homogenate was centrifuged at 2,400 g to pellet non-membrane derived material. The supernatant containing the brain membrane fragments was centrifuged at 30,000 g in a refrigerated (4° C.) centrifuge for 20 minutes. The pellet was resuspended in 100 tissue-volumes of the Tris-HCl buffer and centrifuged again as above. The process was repeated two more times, and the resulting pellet was resuspended in Tris-HCl buffer solution. The suspended tissue contained synaptosomal and other neurally derived membrane fragments with intact N-channels.

PTZ-induced seizures [2] = assay: PTZ-induced seizures in mice (ICV); assay type: in vivo, Swiss Webster mice; conditions: for % having seizures: PTZ 70 mg/kg
Procedure: In addition to the in vivo gerbil experiments described in Example 4, aminoglycosides were tested in various ways to evaluate their ability to inhibit experimentally-induced seizures in mice. In one set of tests, male Swiss Webster white mice weighing 20-25 grams were used. The animals (10 per group) were pre-injected with 3 microliters (μL) of either a saline solution (control group), or saline solution containing varying dosages of neomycin sulfate. The injection was performed via the […] route, to insure access of the neomycin to neurons; when these experiments were initially performed, questions concerning the ability of neomycin to penetrate the BBB had not yet been addressed. These injections were performed as described in Haley and McCormick 1957. Twenty minutes after the injections, the animals were administered a dose of 70 mg/kg of the convulsion-inducing drug pentylenetetrazol (PTZ), injected subcutaneously in saline solution. Control animals treated with ICV saline have full seizures within seven minutes following this dose of PTZ.

PTZ-induced seizures [3] = conditions: in words; not measured in these tests; cited from earlier work
[4] = system: electroconvulsive seizures; assay: electroconvulsive seizures (ECS) in mice; conditions: ICV, scale one to six, six = no seizure activity
Procedure: This was accomplished using a set of platinum electrodes placed subcutaneously in two skull regions of Swiss Webster (20-25 gram) mice. The stimulus voltage was 22 mv at a duration of 0.125 mSec.
The seizures were graded on a severity scale of one to six. A score of six represented a complete absence of seizure activity, while a score of one represented the presence of a full tonic-clonic seizure with total hind leg extension. Test drugs were administered via the ICV route in a total volume of 2.5 microliters, 15 minutes prior to the administration of the electroconvulsive shock.

PTZ-induced seizures [5] = assay: PTZ-induced seizures in rats (ICV or IP); conditions: 2 mg/kg
Procedure: Seizure studies were also performed in male Sprague Dawley rats (250-300 grams). In these studies, cannulas were implanted in the lateral cerebral ventricles of several animals so that the test drugs could be administered directly into the lateral ventricle of the brain. The drugs being tested were administered 15 minutes before the administration of a convulsant drug, PTZ, at a dose of 60 mg/kg (in a saline vehicle) injected subcutaneously.
A second series of experiments was performed where neomycin sulfate was administered by the IP 30 minutes prior to PTZ injection.

[6] = system: CA1 neurons in hippocampal tissue slices; assay: protection of rat hippocampal tissue slices (CA1 population spike recovery) against hypoxia; assay type: cell-based, Sprague-Dawley rats
[7] = system: N-channels on blood platelets; assay type: binding, human; conditions: approximate results from initial tests, read-out: Conotoxin blockage
blood platelets = assay: inhibition of ADP-induced platelet aggregation; assay type: cell-based, human; conditions: 20 μM ADP, approximate results from initial tests

`NCC[C@H](O)C(=O)N[C@@H]1C[C@H](N)[C@@H](O[C@H]2O[C@H](CN)[C@@H](O)[C@H](O)[C@H]2O)[C@H](O)[C@H]1O[C@H]1O[C@H](CO)[C@@H](O)[C@H](N)[C@H]1O` [Amikacin] gave an IC50 [1] of 45 µM.

For `NC[C@H]1O[C@H](O[C@H]2[C@H](O)[C@@H](O[C@H]3O[C@H](CO)[C@@H](O)[C@H](N)[C@H]3O)[C@H](N)C[C@@H]2N)[C@H](N)[C@@H](O)[C@@H]1O` [Bekanamycin], the IC50 [1] was greater than 100 µM and the “L-channel IC50” value (L-type Ca2+ channel) was “No inhibition”.

For `OC[C@H]1O[C@@H](n2cnc3c(NC4CCCCC4)ncnc32)[C@H](O)[C@@H]1O` [Cyclohexyladenosine, cyclohexyladenosine], the “% having seizures” value (PTZ-induced seizures [2]; 2 μg) is given as 40%, the behavioral side effects (PTZ-induced seizures [2]; in words) is given as “various behavioral side effects such as ataxia (lack of muscular control, as evidenced by an inability to walk properly) and sedation” and the “known cardiovascular side effects” value (PTZ-induced seizures [3]) is given as “known to provoke hypotension and bradycardia”.

For `CN1C(=O)CN=C(c2ccccc2)c2cc(Cl)ccc21` [Diazepam], the “Seizure Score” value ([4]; 5 ug) was 4.4 and the “% having seizures” value (PTZ-induced seizures [5]) was 75%.

With `NC[C@@H]1CC[C@@H](N)[C@@H](O[C@H]2[C@H](O)[C@@H](O[C@H]3O[C@H](CO)[C@@H](O)[C@H](N)[C@H]3O)[C@H](N)C[C@@H]2N)O1` [Dibekacin] the IC50 [1] was 60 µM and the “L-channel IC50” value (L-type Ca2+ channel) was “No inhibition”.

Work on `CNC1C(OC2C(OC3C(O)C(O)C(N=C(N)N)C(O)C3N=C(N)N)OC(C)C2(O)CO)OC(CO)C(O)C1O` (stereo not drawn) [Dihydrostreptomicin] yielded an IC50 [1] greater than 50 µM.

Compound `CN[C@H]1C[C@@H](N)[C@H](O)[C@@H](O[C@@H]2O[C@H](CO)[C@H](O)[C@@H]3OC4(O[C@H]23)O[C@H]([C@@H](N)CO)[C@H](O)[C@H](O)[C@H]4O)[C@@H]1O` (stereo partly drawn) [Hygromycin B] has an IC50 [1] greater than 1000 µM.

With `NC[C@H]1O[C@H](O[C@H]2[C@H](O)[C@@H](O[C@H]3O[C@H](CO)[C@@H](O)[C@H](N)[C@H]3O)[C@H](N)C[C@@H]2N)[C@H](O)[C@@H](O)[C@@H]1O` [Kanamycin] the IC50 [1] was greater than 50 µM and the “L-channel IC50” value (L-type Ca2+ channel) was “No inhibition”.

In the case of `C[C@H]1O[C@H](O[C@H]2[C@H](O)[C@@H](O)[C@@H](O)[C@H](O)[C@@H]2O)[C@@H](N)C[C@@H]1NC(=N)C(=O)O` [Kasugamycin], the IC50 [1] is reported as greater than 1000 µM.

With `NC[C@@H]1O[C@H](O[C@H]2[C@@H](O)[C@H](O[C@@H]3[C@@H](O)[C@H](N)C[C@H](N)[C@H]3O[C@H]3O[C@H](CO)[C@@H](O)C[C@H]3N)O[C@@H]2CO)[C@H](N)[C@@H](O)[C@@H]1O[C@H]1O[C@H](CO)[C@@H](O)[C@H](O)[C@@H]1O` [Lividomycin A] the IC50 [1] was 50 µM and the “L-channel IC50” value (L-type Ca2+ channel) was “No inhibition”.

In the case of `NC[C@H]1O[C@H](O[C@H]2[C@H](O)[C@@H](O)[C@H](N)C[C@@H]2N)[C@H](N)[C@@H](O)[C@@H]1O` [Neamine], the IC50 [1] is reported as 25 µM.

In the case of `NC[C@@H]1O[C@H](O[C@H]2[C@@H](O)[C@H](O[C@@H]3[C@@H](O)[C@H](N)C[C@H](N)[C@H]3O[C@H]3O[C@H](CN)[C@@H](O)[C@H](O)[C@H]3N)O[C@@H]2CO)[C@H](N)[C@@H](O)[C@@H]1O.O=S(=O)(O)O` [Neomycin Sulfate], the “% having seizures” value (PTZ-induced seizures [2]; 5 μg ICV) is reported as 50%, the “% having seizures” value (PTZ-induced seizures [2]; 10 μg ICV) is reported as 60% and the protection against seizures (PTZ-induced seizures [2]; five or ten micrograms ICV, in words) is reported as “substantially protected against seizures”.

With `NC[C@@H]1O[C@H](O[C@H]2[C@@H](O)[C@H](O[C@@H]3[C@@H](O)[C@H](N)C[C@H](N)[C@H]3O[C@H]3O[C@H](CO)[C@@H](O)[C@H](O)[C@H]3N)O[C@@H]2CO)[C@H](N)[C@@H](O)[C@@H]1O` [Paromomycin] the IC50 [1] was 40 µM and the “L-channel IC50” value (L-type Ca2+ channel) was “No inhibition”.

With `NC[C@H]1O[C@H](O[C@H]2[C@H](O[C@@H]3O[C@H](CO)[C@@H](O)[C@H]3O)[C@@H](O)[C@H](N)C[C@@H]2N)[C@H](N)[C@@H](O)[C@@H]1O` [Ribostamycin] the “L-channel IC50” value (L-type Ca2+ channel) was “No inhibition”.

For `CN[C@@H]1[C@@H](O)[C@@H](O[C@@H]2[C@@H](O)[C@H](O[C@H]3OC(CN)=CC[C@H]3N)[C@@H](N)C[C@H]2N)OC[C@]1(C)O` [Sisomicin], the “N-channel blocking potency (in words)” value [1] was “high potency”, the “N-channel blocking potency (in words)” value ([1]; listed as sisomicin) was “most potent N-channel blockers” and the IC50 [1] was 5 to 10 µM. The “CA1 antidromic PS amplitude recovery” value ([6]; 1.0 mM, stimulated slices) was 70±15%, the “CA1 orthodromic PS amplitude recovery” value ([6]; 1.0 mM, stimulated slices) was 76±9% and the “CA1 antidromic PS recovery” value ([6]; 1.0 mM, unstimulated slices) was 93±3%. For the same compound, the “CA1 orthodromic PS recovery” value ([6]; 1.0 mM, unstimulated slices) was 93±3%, the “hypoxic injury potential (HIP) profile” value ([6]; in words) was “HIP profiles evolved with a time course similar to untreated slices” and the “neuronal protection against hypoxia (summary)” value (shortened to “neuronal protection”) ([6]; in words) was “restore orthodromic and antidromic activity; also recorded: high level of neuronal protection against hypoxia”. The “L-channel IC50” value (L-type Ca2+ channel) was “No inhibition”.

Work on `CNC1C(O)C(NC)C2OC3(O)C(=O)CC(C)OC3OC2C1O` (stereo not drawn) [Spectiomycin] yielded an IC50 [1] greater than 1000 µM.

For `[H]/N=C(/N)N[C@H]1[C@H](O)[C@@H](O)[C@H](O[C@@H]2O[C@@H](C)[C@](O)(C=O)[C@H]2O[C@@H]2O[C@@H](CO)[C@H](O)[C@@H](O)[C@@H]2NC)[C@@H](N/C(N)=N\[H])[C@@H]1O` [Streptomycin], the IC50 [7] was 15 µM, the “N-channel blocking potency (in words)” value [1] was “low potency” and the “N-channel blocking potency (in words)” value ([1]; listed as streptomycin) was “somewhat less potent N-channel blocker”. For the same compound, the IC50 [1] was 25 µM, the “protection of CA1 antidromic population spikes” value ([6]; 10 mM) was 38±22% and the “neuronal protection” value ([6]; in words) was “ineffective in reducing hypoxic damage to hippocampal tissue slices except when administered in high dosages; also recorded: only marginally effective and required high doses”. For the same compound, the “neuronal protection” value ([6]; in words, listed as streptomycin) was “some potency but at substantially lower levels; also recorded: lower degree of neuroprotection”, the IC50 (blood platelets; Homo sapiens, Platelet) was 5000 µM and the “L-channel IC50” value (L-type Ca2+ channel) was “No inhibition”.

For `NC[C@H]1O[C@H](O[C@H]2[C@H](O)[C@@H](O[C@H]3O[C@H](CO)[C@@H](O)[C@H](N)[C@H]3O)[C@H](N)C[C@@H]2N)[C@H](N)C[C@@H]1O` [Tobramycin], the IC50 [1] was greater than 50 µM.

In the case of Butirosin, the IC50 [1] is reported as 150 µM.

In the case of Gentamicin, the IC50 [7] is reported as 5 µM, the “Seizure Score” value ([4]; 40 ug) is reported as 4.9 and the “N-channel blocking potency (in words)” value [1] is reported as “intermediate”. For the same compound, the “N-channel blocking potency (in words)” value ([1]; listed as gentamicin) was “most potent N-channel blockers”, the IC50 [1] was 10 µM and the “CA1 orthodromic PS recovery” value ([6]; 2.5 mM, stimulated slices) was 60±23%. The “neuronal protection” value ([6]; in words) was “restore orthodromic and antidromic activity; also recorded: high level of neuronal protection against hypoxia” and the IC50 (blood platelets) was 2000 µM.
